According to PubChem BioAssay (NCI):
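Briefly, cells in 96-well plates were exposed to five compound concentrations for 48 h, and endpoints were estimated by linear interpolation. Definition used: TGI = concentration required for complete inhibition of growth.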

Key:
Test in all cases: DTP human tumour cell line panel, 48 h
[1] = system: A498 renal
[2] = system: SN12C renal
[3] = system: HOP-92 NSCLC
[4] = system: MALME-3M melanoma
[5] = system: CCRF-CEM leukemia
[6] = system: RXF 393 renal
[7] = system: HL-60(TB) leukemia
[8] = system: EKVX NSCLC
[9] = system: DU-145 prostate
[10] = system: NCI-H460 lung
[11] = system: SW-620 colon
[12] = system: KM12 colon
[13] = system: TK-10 renal
[14] = system: PC-3 prostate
[15] = system: OVCAR-5 ovarian
[16] = system: CAKI-1 renal
[17] = system: SR leukemia
[18] = system: SK-MEL-2 melanoma
[19] = system: SK-MEL-5 melanoma
[20] = system: HCT-15 colon
[21] = system: SK-MEL-28 melanoma
[22] = system: SF-539 CNS
[23] = system: UACC-62 melanoma
[24] = system: UO-31 renal
[25] = system: MOLT-4 leukemia
[26] = system: K-562 leukemia
[27] = system: NCI/ADR-RES ovarian
[28] = system: 786-0 renal
[29] = system: UACC-257 melanoma
[30] = system: BT-549 breast
[31] = system: HS 578T breast
[32] = system: OVCAR-4 ovarian
[33] = system: SNB-19 CNS
[34] = system: ACHN renal
[35] = system: HCC-2998 colon
[36] = system: IGROV1 ovarian
[37] = system: HCT-116 colon
[38] = system: MDA-MB-231 breast
[39] = system: RPMI-8226 leukemia
[40] = system: U251 CNS
[41] = system: SNB-75 CNS
[42] = system: MCF7 breast
[43] = system: A549 NSCLC
[44] = system: M14 melanoma
[45] = system: SF-268 CNS
[46] = system: SK-OV-3 ovarian
[47] = system: LOX IMVI melanoma
[48] = system: NCI-H23 lung
[49] = system: SF-295 CNS
[50] = system: NCI-H522 lung
[51] = system: OVCAR-8 ovarian
[52] = system: MDA-MB-435
[53] = system: HT29 colon
[54] = system: COLO 205 colon
[55] = system: NCI-H226 lung
[56] = system: HOP-62 NSCLC
[57] = system: T-47D breast
[58] = system: OVCAR-3 ovarian

Nc1ccc(Oc2ccc(C3(c4ccc(Oc5ccc(N)c(O)c5)cc4)C4CC5C6CC7CC5C3C(C7)C6C4)cc2)cc1O showed a TGI [1] of 4.73 µM, a TGI [2] of 3.19 µM and a TGI [3] of 5.02 µM. For the same compound, the TGI [4] was > 24.2 µM, the TGI [5] was > 100 µM and the TGI [6] was 4.5 µM. For the same compound, the TGI [7] was > 100 µM, the TGI [8] was > 24.1 µM and the TGI [9] was 3.54 µM. For the same compound, the TGI [10] was > 100 µM, the TGI [11] was > 100 µM and the TGI [12] was 3.85 µM. For the same compound, the TGI [13] was > 26 µM, the TGI [14] was 3.48 µM and the TGI [15] was 5.76 µM. For the same compound, the TGI [16] was 6.72 µM, the TGI [17] was > 100 µM and the TGI [18] was 5.64 µM. The TGI [19] was > 26.4 µM, the TGI [20] was 10.3 µM and the TGI [21] was > 26.5 µM. The TGI [22] was > 21.6 µM, the TGI [23] was 17.7 µM and the TGI [24] was 8.12 µM. For the same compound, the TGI [25] was 4.99 µM, the TGI [26] was 5.35 µM and the TGI [27] was > 100 µM. The TGI [28] was 3.4 µM, the TGI [29] was 14.6 µM and the TGI [30] was > 31.2 µM. The TGI [31] was > 100 µM, the TGI [32] was 5.73 µM and the TGI [33] was 24.2 µM. For the same compound, the TGI [34] was 3.18 µM, the TGI [35] was 4.96 µM and the TGI [36] was 4.68 µM.
For C/C1=C\CC[C@@]2(C)O[C@@H]2[C@H]2OC(=O)C(C)C2C[C@H]1O (some centres undefined), the TGI [2] was > 100 µM, the TGI [37] was > 100 µM and the TGI [38] was > 100 µM. The TGI [3] was > 100 µM, the TGI [4] was > 100 µM and the TGI [5] was > 100 µM. The TGI [6] was > 100 µM, the TGI [39] was > 100 µM and the TGI [8] was > 100 µM. For the same compound, the TGI [9] was > 100 µM, the TGI [10] was > 100 µM and the TGI [11] was > 100 µM. The TGI [12] was > 100 µM, the TGI [40] was > 100 µM and the TGI [41] was > 100 µM. For the same compound, the TGI [42] was > 100 µM, the TGI [43] was > 100 µM and the TGI [13] was > 100 µM. For the same compound, the TGI [44] was > 100 µM, the TGI [14] was > 100 µM and the TGI [15] was > 100 µM. For the same compound, the TGI [16] was > 100 µM, the TGI [17] was > 100 µM and the TGI [45] was > 100 µM. The TGI [18] was > 100 µM, the TGI [19] was > 100 µM and the TGI [20] was > 100 µM. The TGI [21] was > 100 µM, the TGI [46] was > 100 µM and the TGI [47] was > 100 µM. For the same compound, the TGI [48] was > 100 µM, the TGI [49] was > 100 µM and the TGI [23] was > 100 µM. For the same compound, the TGI [24] was > 100 µM, the TGI [25] was > 100 µM and the TGI [26] was > 100 µM. The TGI [27] was > 100 µM, the TGI [28] was > 100 µM and the TGI [29] was > 100 µM. For the same compound, the TGI [50] was > 100 µM, the TGI [51] was > 100 µM and the TGI [31] was > 100 µM. For the same compound, the TGI [52] was > 100 µM, the TGI [53] was > 100 µM and the TGI [32] was > 100 µM. For the same compound, the TGI [33] was > 100 µM, the TGI [54] was > 100 µM and the TGI [34] was > 100 µM. The TGI [35] was > 100 µM and the TGI [36] was > 100 µM.
With O=C(/C=C/c1cccs1)c1ccc(C(=O)/C=C/c2cccs2)cc1 the TGI [1] was > 100 µM, the TGI [2] was > 100 µM and the TGI [38] was > 100 µM. For the same compound, the TGI [3] was > 100 µM, the TGI [4] was > 100 µM and the TGI [8] was > 100 µM. For the same compound, the TGI [9] was > 100 µM, the TGI [10] was > 100 µM and the TGI [11] was > 100 µM. The TGI [12] was > 100 µM, the TGI [40] was > 100 µM and the TGI [41] was > 100 µM. For the same compound, the TGI [43] was > 100 µM, the TGI [13] was > 100 µM and the TGI [55] was > 100 µM. The TGI [44] was > 100 µM, the TGI [14] was > 100 µM and the TGI [15] was > 100 µM. The TGI [16] was > 100 µM, the TGI [17] was > 100 µM and the TGI [45] was > 100 µM. For the same compound, the TGI [56] was > 100 µM, the TGI [20] was > 100 µM and the TGI [21] was > 100 µM. The TGI [46] was > 100 µM, the TGI [57] was > 100 µM and the TGI [48] was > 100 µM. For the same compound, the TGI [22] was > 100 µM, the TGI [58] was > 100 µM and the TGI [49] was > 100 µM. The TGI [23] was > 100 µM, the TGI [24] was > 100 µM and the TGI [25] was > 100 µM. For the same compound, the TGI [27] was > 100 µM, the TGI [28] was > 100 µM and the TGI [29] was > 100 µM. For the same compound, the TGI [30] was > 100 µM, the TGI [50] was > 100 µM and the TGI [51] was > 100 µM. The TGI [31] was > 100 µM, the TGI [52] was > 100 µM and the TGI [53] was > 100 µM. The TGI [32] was > 100 µM, the TGI [33] was > 100 µM and the TGI [54] was > 100 µM. The TGI [34] was > 100 µM, the TGI [35] was > 100 µM and the TGI [36] was > 100 µM.
